≈ marks a conversion by molar mass, not a printed value.
What was measured:
Assay type in all cases: functional
Details in all cases: read-out: ED50 (the source's name)
SK-MEL-2 = assay: Cytotoxicity against human SK-MEL-2 cells
HCT-15 = assay: Cytotoxicity against human HCT15 cells
SK-OV-3 = assay: Cytotoxicity against human SKOV3 cells
XF498 = assay: Cytotoxicity against human XF498 cells
A549 = assay: Cytotoxicity against human A549 cells

| Compound | EC50 (SK-MEL-2) [µg/mL] | EC50 (HCT-15) [µg/mL] | EC50 (SK-OV-3) [µg/mL] | EC50 (XF498) [µg/mL] | EC50 (A549) [µg/mL] |
| --- | --- | --- | --- | --- | --- |
| CC1=C(O)/C(=C\[C@H](C)CCC/C(C)=C/CCc2coc(Cc3ccoc3)c2)OC1=O [SARCOTIN D] | 10.2 (≈ 24.8 µM) | 9.82 (≈ 23.9 µM) | 9.39 (≈ 22.9 µM) | 6.52 (≈ 15.9 µM) | 4.98 (≈ 12.1 µM) |
| CC1=C(O)/C(=C\[C@H](C)CC/C=C(/C)CCCc2coc(Cc3ccoc3)c2)OC1=O [SARCOTIN E] | 8.37 (≈ 20.4 µM) | 7.31 (≈ 17.8 µM) | 6.24 (≈ 15.2 µM) | 5 (≈ 12.2 µM) | 3.8 (≈ 9.26 µM) |
| CC1=C(O)/C(=C/[C@H](C)CC/C=C(/C)CCCc2coc(Cc3ccoc3)c2)OC1=O [IRCININ 2] | 5.87 (≈ 14.3 µM) | 4.74 (≈ 11.5 µM) | 5.9 (≈ 14.4 µM) | 3.7 (≈ 9.01 µM) | 3.8 (≈ 9.26 µM) |
| CC1=C(O)[C@@H](C/C(C)=C\CC/C(C)=C/CC/C(C)=C/CCc2ccoc2)OC1=O | 16.3 (≈ 40.9 µM) | 27.5 (≈ 69 µM) | 26.8 (≈ 67.3 µM) | 20.4 (≈ 51.2 µM) | 16.9 (≈ 42.4 µM) |
| CC1=C(O)/C(=C/[C@H](C)CCC/C(C)=C/CCc2coc(Cc3ccoc3)c2)OC1=O [IRCININ 1] | 8.95 (≈ 21.8 µM) | 6.91 (≈ 16.8 µM) | 6.55 (≈ 16 µM) | 5.42 (≈ 13.2 µM) | 3.72 (≈ 9.06 µM) |
| COc1cccc2c1C(=O)c1c(O)c3c(c(O)c1C2=O)C[C@@](O)(C(=O)CO)C[C@@H]3O[C@H]1C[C@H](N)[C@H](O)[C@H](C)O1 [DOXORUBICIN] | 0.02 (≈ 0.0368 µM) | 0.04 (≈ 0.0736 µM) | 0.11 (≈ 0.202 µM) | 0.08 (≈ 0.147 µM) | 0.02 (≈ 0.0368 µM) |
| CC1=C(O)[C@H](C/C(C)=C\CCC(C)/C=C\C=C(\C)CCCc2ccoc2)OC1=O (stereo not given in full) [SARCOTIN B] | 7.78 (≈ 19.5 µM) | 8.95 (≈ 22.5 µM) | 11.3 (≈ 28.4 µM) | 8.89 (≈ 22.3 µM) | 10.1 (≈ 25.3 µM) |
| CC1=C(O)[C@@H](C/C(C)=C\CCC(C)/C=C/C=C(\C)CCCc2ccoc2)OC1=O (stereo not given in full) [SARCOTIN A] | > 30 | 27.2 (≈ 68.2 µM) | 22.1 (≈ 55.4 µM) | 24.8 (≈ 62.3 µM) | 29.7 (≈ 74.5 µM) |

Reference: ChEMBL document CHEMBL1156359, “New cytotoxic sesterterpenes from the sponge Sarcotragus species” (2001)
